# Experimental data from patent US10882866B1, “Spiro[3H-indole-3,2′-pyrrolidin]-2(1H)-one compounds and derivatives as MDM2-P53 inhibitors” (Boehringer Ingelheim International GmbH, priority 2015, dated 2021).
# pIC50: −log10 of the molar value.
# Tests used:
# [1] = biological target: GST-MDM2 protein (aa 23-117) / biotinylated p53 wt peptide (p53-MDM2 interaction) (Homo sapiens (Human), UniProt Q00987); experiment: Mdm2-p53 Inhibition AlphaScreen; type: binding; conditions: 20 nM GST-MDM2 (aa 23-117), 20 nM biotinylated p53 wt peptide
# Experimental: Mdm2-p53 Inhibition AlphaScreen
# 15 μL of compound in 20% DMSO (serial pre-dilutions of compound are done in 100% DMSO) is pipetted to the wells of a white OptiPlate-96 (PerkinElmer). A mix consisting of 20 nM GST-MDM2 protein (aa 23-117) and 20 nM biotinylated p53 wt peptide (encompassing aa 16-27 of wt human p53, amino acid sequence […]-Ttds-Lys-Biotin, molecular weight 2132.56 g/mol) is prepared in assay buffer (50 mM Tris/HCl pH 7.2; 120 mM NaCl; 0.1% bovine serum albumin (BSA); 5 mM dithiothreitol (DTT); 1 mM ethylenediaminetetraacetic acid (EDTA); 0.01% Tween 20). 30 μL of the mix is added to the compound dilutions and incubated for 15 min at rt while gently shaking the plate at 300 rounds per minute (rpm). Subsequently, 15 μL of premixed AlphaLISA Glutathione Acceptor Beads and AlphaScreen Streptavidin Donor Beads from PerkinElmer (in assay buffer at a concentration of 10 μg/mL each) are added and the samples are incubated for 30 min at rt in the dark (shaking 300 rpm). Afterwards, the signal is measured in a PerkinElmer Envision HTS Multilabel Reader using the AlphaScreen protocol from PerkinElmer.
# Each plate contains negative controls where biotinylated p53-peptide and GST-MDM2 are left out and replaced by assay buffer. Negative control values are entered as low basis value when using the software GraphPad Prism for calculations. […]
# [2] = system: human acute myeloid leukemia (AML) xenograft models harboring p53 wild-type; conditions: cited from earlier work
# [3] = system: human prostate tumor xenograft models harboring p53 wild-type; conditions: cited from earlier work
# GST-MDM2 protein (aa 23-117) / biotinylated p53 wt peptide (p53-MDM2 interaction), sequence (Q00987 23-117): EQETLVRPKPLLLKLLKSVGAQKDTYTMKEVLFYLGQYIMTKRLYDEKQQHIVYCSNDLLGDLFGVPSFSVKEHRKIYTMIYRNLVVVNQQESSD
SMILES,pIC50 [1],antiproliferative and proapoptotic activity [2],antiproliferative and proapoptotic activity [3]
COc1cc2c(cc1C(N)=O)nc1n2CC[C@H]2[C@@H]1[C@H](c1cccc(Cl)c1F)[C@]1(C(=O)Nc3cc(Cl)ccc31)N2CC1CC1 [Ib-234],8.70,–,–
CCOc1cc(C(C)(C)C)ccc1C1=N[C@@](C)(c2ccc(Cl)cc2)[C@@](C)(c2ccc(Cl)cc2)N1C(=O)N1CCN(CCCS(C)(=O)=O)CC1 [RG7112],–,antiproliferative and proapoptotic activity of RG7112 has been observed,antiproliferative and proapoptotic activity of RG7112 has been observed
